# Source: paper PMC10447463, “Data-mining unveils structure–property–activity correlation of viral infectivity enhancing self-assembling peptides” (Nature Communications, 2023)
# Values joined by “and” are separate entries in the source; they are usually repeats but may differ in a detail not shown here. Equal entries are not always repeated. Where two headings read alike, the source gives them in different places.
# Tests used:
# [1] = assay type: physicochemical; set-up: key to Fibril / Fibril Formation / TEM 2cat / Fibril: 1 = fibrils present; 0 non-fibrillar structures; settings: for Fibril / Fibril Formation: 1 mg/mL, uranyl acetate stain, qualitative
# [2] = β-sheet content by ATR-FT-IR; assay type: physicochemical; settings: for ß-sheet / %: ATR-FT-IR of lyophilised 1 mg/mL PNF solution, peak integral ratio 1625-1635 cm-1, measured once; for b -sheet / %: Fig. S7 panel A, β-sheet content by ATR-FT-IR
# Summary of the method: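 Fluorescence at 470 nm (365 nm excitation) was read 20 min after adding fluorescamine to DMSO-dissolved filtrate and unfiltered PNF, then CR computed as 100 − 100 × filtrate/original. Secondary structure came from ATR FT-IR spectra of lyophilized PNF powder.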
# [3] = Zeta-potential measurement; assay type: physicochemical; settings: for Zeta pot. / mV: 1 mg/mL in PBS pH 7.4 from 10 mg/mL DMSO stock, 1 d RT, 60 µL diluted in 600 µL 1 mM KCl, Zetasizer Nano ZS, Smoluchowski, mean of triplicate
# Summary of the method: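 Peptides from a 10 mg/mL DMSO stock were brought to 1 mg/mL in PBS (pH 7.4) and aged 1 d at RT. Just before reading, they were diluted into 1 mM aqueous KCl, and zeta potential was calculated from electrophoretic mobility with the Smoluchowski formula.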
# [4] = Turbidity, derived count rate of scattered light; assay type: physicochemical; settings: for Count Rate / kcps: derived count rate of scattered light at 633 nm, 173°, from zeta-potential measurement, 0.1 mg/mL in 1 mM KCl after 1 d at 1 mg/mL in PBS, turbidity / microscopic aggregation, mean of triplicate
# Summary of the method: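 Samples: 1 mg/mL in PBS pH 7.4 (from DMSO), 1 d at RT, then diluted in 1 mM KCl immediately before measurement. Triplicates, two independent runs averaged.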
# [5] = Turbidity, derived count rate of scattered light; assay type: physicochemical; settings: for Count Rate: derived count rate of scattered light (turbidity); for Log10 Count Rate: turbidity, derived count rate of scattered light, data of Figure 2D
# [6] = FigS12 panel A, fibril category by TEM
# [7] = TEM, 1 = fibrils present, 0 = non-fibrillar
# [8] = TEM, 1 = fibrils present, 0 = non-fibrillar structures
# [9] = zeta-potential of peptide, source data of Figure 2C
# [10] = zeta-potential of the peptide assemblies, mean, Figure 3A source data
# [11] = Log10 of derived count rate of scattered light (turbidity)
# [12] = logarithm of count rate in kcps
# [13] = turbidity, Log10 of derived count rate of scattered light, Figure 3A source data
# [14] = turbidity, log10 of derived count rate of scattered light
# [15] = Fig S10 panel D, fibril category by TEM
# [16] = category: fibrils present or non-fibrillar
# [17] = log10 of derived count rate of scattered light (turbidity)
# [18] = zeta potential of peptide assemblies
Substance,Fibril ([1]; Fig S10 panel E),"TEM 2cat [1, 6]","Fibril ([1]; FigS12 panel B, TEM)",Fibril / Fibril Formation ([1]; TEM),"Fibril [1, 7]","Fibril [1, 8]",b -sheet / % [2] [%],Zeta-Pot. [3],"Zeta-Potential / mV [3, 9] [mV]","Zeta-Potential / mV [3, 10] [mV]","Log10 Count Rate [4, 11]",Count Rate / kcps [4] [kcps],"Log10 Count Rate [4, 13]",Count Rate [5],Log10 Count Rate [5],"TEM 2cat [1, 15]","TEM 2cat [1, 16]","Log10 Count Rate [4, 17]","Zeta-Pot. [3, 18]",other results
CKAKAQANMWQ,0,0,0,0,0,0,39.38,0.7373,2.155,0.74,0.9526,9,0.9526,8.967,0.9526,–,–,–,–,"TEM 2cat ([1]; Fig S10 panel D): 0; ß-sheet / % [2]: 39%; Zeta pot. / mV [3]: 0.7 mV; Log10 Count Rate [4, 12]: 1 and 0.9528; Log10 Count Rate [4, 14]: 0.9526"
IKVAVKIKIQINM,–,–,–,1,1,1,58.1,14.5,14.18,14.5,3.686,4848,3.686,4848,3.686,1,1,3.686,–,–
CKAKAQANM,0,0,0,0,0,0,34.22,-7.773,-4.618,-7.77,2.317,207,2.317,207.3,2.317,–,–,–,–,"TEM 2cat ([1]; Fig S10 panel D): 0; ß-sheet / % [2]: 34%; Zeta pot. / mV [3]: -7.8 mV; Log10 Count Rate [4, 12]: 2.3; Log10 Count Rate [4, 14]: 2.317"
KIKIQIII,1,–,–,1,1,1,45.8425,–,19.13,19.8,1.978,95,1.978,94.97,1.978,1,1,1.978,19.8,–
EIKIQINM,1,1,1,1,1,1,48.03,-22.33,-20.62,-22.33,3.45,2816,3.45,2816,3.45,1,–,3.45,–,–
HHHHKAKAKAKAWWWW,–,0,0,0,0,0,40.26,17.4,12.25,17.4,2.8188,659,2.8188,658.9,2.8188,0,–,2.8188,–,–
QCKIKIQINM,1,–,–,1,1,1,37.11,11.37,11.15,11.37,3.979,9524,3.979,9524,3.979,–,1,–,–,"TEM 2cat ([1]; Fig S10 panel D): 1; Log10 Count Rate [4, 14]: 3.979"
CEIEIQINM,1,1,1,1,1,1,46.31,–,-22.07,-15.3,1.767,58,1.767,58.43,1.767,1,–,1.767,-15.3,–
KFKFQFW,–,–,–,1,1,1,35.45,6.49,8.995,6.49,2.086,122,2.086,121.9,2.086,1,1,2.086,–,–
KIKQII,0,0,0,0,0,0,38.67,–,-6.459,-12.67,2.086,122,2.086,122,2.086,0,–,2.086,-12.67,–
KIKIKIQI,1,1,1,1,1,1,40.16,–,9.885,6.97,3,999,3,999.1,3,1,–,3,6.97,–
